The record followed here is the NIST ThermoML archive (doi:10.1016/j.jct.2012.03.034).

± gives the expanded uncertainty stated by the source.

Data set [1] in a line: xn = mol fraction of the nth substance listed. To be noted: 101 kPa, Liquid, x2 = 0; for speed of sound: Linear variable-path acoustic interferometer; for mass density: Vibrating tube method; for viscosity: dual vibrating plate viscometer, AandD Co. Ltd Model SV-10.
The conditions of data set [2]: 298.15 K, 101.33 kPa, Liquid; for speed of sound: Linear variable-path acoustic interferometer; for mass density: Vibrating tube method; for viscosity: dual vibrating plate viscometer, AandD Co. Ltd Model SV-10.

`CN1CCCC1=O` [N-methylpyrrolidone] + CC(=O)O.CCN(CC)CC: the speed of sound in data set [1] (298.15 K) was determined as 1572 ± 2 m/s; in data set [1] (303.15 K), 1552 ± 2 m/s; in data set [1] (308.15 K) it was 1528 ± 2 m/s; in data set [1] (313.15 K) it was 1520 ± 2 m/s. Further, the mass density in data set [1] (298.15 K) is on record as 1025.9 ± 0.3 kg/m3; in data set [1] (303.15 K) it was 1023.74 ± 0.3 kg/m3; in data set [1] (308.15 K) it was 1019.25 ± 0.3 kg/m3; in data set [1] (313.15 K) it was 1014.74 ± 0.3 kg/m3. Also, the viscosity amounted to 1.66 ± 0.03 mPa·s in data set [1] (298.15 K), 1.49 ± 0.03 mPa·s in data set [1] (303.15 K), 1.39 ± 0.03 mPa·s in data set [1] (308.15 K) and 1.31 ± 0.03 mPa·s in data set [1] (313.15 K).

Regarding `CN1CCCC1=O` [N-methylpyrrolidone] + CC[NH+](CC)CC.O=S(=O)([O-])O, the speed of sound in data set [1] (298.15 K) was found to be 1572 ± 2 m/s; in data set [1] (303.15 K), 1552 ± 2 m/s; in data set [1] (308.15 K), 1528 ± 2 m/s; in data set [1] (313.15 K) it was 1520 ± 2 m/s. Besides, the mass density in data set [1] (298.15 K) stood at 1025.9 ± 0.3 kg/m3; in data set [1] (303.15 K), 1023.74 ± 0.3 kg/m3; in data set [1] (308.15 K), 1019.25 ± 0.3 kg/m3; in data set [1] (313.15 K), 1014.74 ± 0.3 kg/m3. Moreover, the values for the viscosity in data set [1] (308.15 K) and in data set [1] (313.15 K) were 1.39 ± 0.03 mPa·s and 1.31 ± 0.03 mPa·s, respectively.

Regarding `CC[NH+](CC)CC.O=S(=O)([O-])O` [triethylammonium hydrogen sulfate], in data set [2], the speed of sound is given as 1874 ± 2 m/s, the mass density worked out at 1142.89 ± 0.45 kg/m3 and the viscosity is recorded as 235 ± 13 mPa·s.

Regarding `CC(=O)O.CCN(CC)CC` [triethylammonium acetate], in data set [2], the speed of sound is on record as 1840 ± 2 m/s, the mass density was determined as 1015.86 ± 0.32 kg/m3 and the viscosity worked out at 24.14 ± 0.39 mPa·s.

On to `CC(=O)[O-].CC[NH2+]CC` [diethylammonium acetate], for which, in data set [2], the speed of sound came to 1608 ± 2 m/s, the mass density is given as 1021.41 ± 0.32 kg/m3 and the viscosity came out at 16.36 ± 0.23 mPa·s.

For the compound `CN1CCCC1=O` [N-methylpyrrolidone] + CC(=O)[O-].CC[NH2+]CC, the speed of sound in data set [1] (298.15 K) was determined as 1572 ± 2 m/s; in data set [1] (303.15 K) it was 1552 ± 2 m/s; in data set [1] (308.15 K) it was 1528 ± 2 m/s; in data set [1] (313.15 K), 1520 ± 2 m/s. In addition, the mass density in data set [1] (298.15 K) is recorded as 1025.9 ± 0.3 kg/m3; in data set [1] (303.15 K), 1023.74 ± 0.3 kg/m3; in data set [1] (308.15 K), 1019.25 ± 0.3 kg/m3; in data set [1] (313.15 K) it was 1014.74 ± 0.3 kg/m3. Besides, the viscosity in data set [1] (298.15 K) is 1.66 ± 0.03 mPa·s; in data set [1] (303.15 K), 1.49 ± 0.03 mPa·s; in data set [1] (308.15 K) it was 1.39 ± 0.03 mPa·s; in data set [1] (313.15 K) it was 1.31 ± 0.03 mPa·s.

On to `CN1CCCC1=O` [N-methylpyrrolidone], for which, in data set [2], the speed of sound is 1552 ± 2 m/s, the mass density was 1025.9 ± 0.31 kg/m3 and the viscosity was found to be 1.66 ± 0.03 mPa·s.

In the case of `CC[NH2+]CC.O=S(=O)([O-])O` [diethylammonium hydrogen sulfate], in data set [2], the speed of sound is 1432 ± 2 m/s, the mass density turned out to be 1283.95 ± 0.61 kg/m3 and the viscosity worked out at 34.1 ± 0.63 mPa·s.

In the case of `CN1CCCC1=O` [N-methylpyrrolidone] + CC[NH2+]CC.O=S(=O)([O-])O, the speed of sound was found to be 1572 ± 2 m/s in data set [1] (298.15 K), 1552 ± 2 m/s in data set [1] (303.15 K), 1528 ± 2 m/s in data set [1] (308.15 K) and 1520 ± 2 m/s in data set [1] (313.15 K). Further, the mass density was determined as 1025.9 ± 0.3 kg/m3 in data set [1] (298.15 K), 1023.74 ± 0.3 kg/m3 in data set [1] (303.15 K), 1019.25 ± 0.3 kg/m3 in data set [1] (308.15 K) and 1014.74 ± 0.3 kg/m3 in data set [1] (313.15 K). Besides, the viscosity stood at 1.66 ± 0.03 mPa·s in data set [1] (298.15 K), 1.49 ± 0.03 mPa·s in data set [1] (303.15 K), 1.39 ± 0.03 mPa·s in data set [1] (308.15 K) and 1.31 ± 0.03 mPa·s in data set [1] (313.15 K).
